Assay results from patent EP4631490A1, “ACTIVATOR AND SKIN CONDITION IMPROVING AGENT” (Nippon Shokubai Co., Ltd., priority 2022, dated 2024).

Columns and labels:
[1] = Measurement of critical micelle concentration (surface tension, platinum suspension plate method); format: physicochemical; settings: critical micelle concentration from surface tension measurement
Description: A highly functional surface tensiometer (DY-500 (available from Kyowa Interface Science Co., Ltd.) was used to perform surface tension measurement by a platinum suspension plate method, and critical micelle concentrations (CMCs) of the STL C14, the STL C16, the STL C18, sodium lauryl sulfate, sodium deoxycholate, and sodium caprylate were calculated in accordance with a common method. The results are described in Table 4.

[2] = Foam property evaluation (dynamic foam analyzer); format: physicochemical; settings: 0.5% aqueous solution, pH 8.0, water hardness 20°dH, 25°C; for Creaminess of foam Bubble area after 20 seconds: 20 seconds after stirring was stopped; for Creaminess of foam Bubble area after 600 seconds: 600 seconds after stirring was stopped; for Foam retention evaluation Foam change rate: smaller = better foam retention
Description: Thereafter, an average bubble area of foams was determined based on the images, and creaminess (foamability) of the foams was evaluated according to the following criteria. Note that the creaminess of the foams is characterized by having a small final bubble diameter (measured as average bubble area). The foams generated from the aqueous solutions containing the STL C14, the STL C16, or the STL C18 had small bubble areas, and thus it was considered that creamy foams could be formed. • ⊚ (good): The bubble area was 20000 µm^2 or less. • ∘ (passed): The bubble area was 20001 µm^2 or more and 30000 µm^2 or less. • Δ (slightly poor): The bubble area was 30001 µm^2 or more and 40000 µm^2 or less. • × (poor): The bubble area was 40001 µm^2 or more. A foam change rate was calculated using the following equation. It can be determined that the smaller the foam change rate is, the better the foam retention is, in other words, the better the foaming durability is. […]

L929 mouse fibroblasts = settings: values of L. Vian et al., Toxicol in vitro, 9(2), 185-190, 1995; cited from earlier work
Zein powder = test: Protein denaturation test (dissolution of Zein powder); settings: 0.5% aqueous solution, pH 8.0; 0.03 g Zein powder in 10 mL; room temperature, 2 hours; index of skin irritation
Description: 0.03 g of Zein powder (FUJIFILM Wako Pure Chemical Corporation) was added to the aqueous solutions of the STL. After stirring at room temperature and 1200 rpm for 2 hours, the Zein powder-added solutions were transferred to centrifuge tubes, respectively, and centrifuged at 6200 rpm for 10 seconds to precipitate and remove undissolved zein powder. The protein concentrations in the solutions were measured using a microvolume spectrophotometer NanoDrop (NanoDrop Technologies).
The protein denaturation test was performed in the same manner using sodium lauryl sulfate, sodium deoxycholate, and sodium caprylate.

| Compound | Surface activating ability evaluation CMC [1] [mM] | Creaminess of foam Bubble area after 20 seconds [2] | Creaminess of foam Bubble area after 600 seconds [2] | Foam retention evaluation Foam change rate [2] [%] | Cytotoxicity evaluation IC50 (L929 mouse fibroblasts) [ppm] | Protein denaturation ability evaluation Protein dissolution concentration (Zein powder) [µg/mL] |
| --- | --- | --- | --- | --- | --- | --- |
| sodium deoxycholate | 6 | ⊚ (⊚ (good): The bubble area was 20000 µm^2 or less.) | × (× (poor): The bubble area was 40001 µm^2 or more.) | 2.62 | 90 | 430 |
| CCCCCCCCCCCCOS(=O)(=O)[O-].[Na+] [Sodium lauryl sulfate, sodium lauryl sulfate] | 8 | ⊚ (⊚ (good): The bubble area was 20000 µm^2 or less.) | Δ (Δ (slightly poor): The bubble area was 30001 µm^2 or more and 40000 µm^2 or less.) | 2.81 | 86 |  |
| CCCCCCCC(=O)[O-].[Na+] [Sodium caprylate, sodium caprylate] | 300 | ○ | Δ (Δ (slightly poor): The bubble area was 30001 µm^2 or more and 40000 µm^2 or less.) | 1.09 | 887 |  |
